Measured values as given in PubChem BioAssay AID1117265 (The Scripps Research Institute Molecular Screening Center, 2014).
The source made the active and inactive calls. The rule behind the calls is not given here.

Target: Trace amine-associated receptor 1 (Homo sapiens) (UniProt Q96RJ0)
Assay: blockers of trace amine receptor TAAR1 – cell-based, fluorescence, MedChem round 2, late-stage follow-up (AID 1117265)
Conditions: TAAR1-expressing cells, antagonist mode

Chain of Trace amine-associated receptor 1 (Homo sapiens) (Q96RJ0 whole entry, looked up, the tested form may be a part): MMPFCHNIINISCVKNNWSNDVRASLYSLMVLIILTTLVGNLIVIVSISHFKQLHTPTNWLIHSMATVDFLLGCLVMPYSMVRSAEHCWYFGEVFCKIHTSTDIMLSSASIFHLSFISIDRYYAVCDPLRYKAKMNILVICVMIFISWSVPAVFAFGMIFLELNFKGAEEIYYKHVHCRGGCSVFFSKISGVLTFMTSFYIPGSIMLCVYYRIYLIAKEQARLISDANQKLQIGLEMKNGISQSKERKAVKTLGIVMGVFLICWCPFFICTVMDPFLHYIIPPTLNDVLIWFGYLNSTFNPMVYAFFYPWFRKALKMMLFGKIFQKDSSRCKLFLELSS

With `Cc1ccc(C(=O)CCN2CCC(c3ccccc3)C2)cc1` (configuration not stated) the IC50 was 672 nM.

In the case of `N#Cc1c(C(F)(F)F)cc(-c2ccc(Cl)cc2)nc1SCC(=O)N1CCCC1`, the IC50 is reported as 1070 nM.

For `COc1cc(C(=O)CCN2CCC(c3ccccc3)C2)cc(OC)c1OC` (configuration not stated), the IC50 was 419 nM.

`N#Cc1c(C(F)(F)F)cc(-c2ccc(Cl)cc2)nc1SCC(=O)N1CCCCCC1` was tested, and the IC50 was > 29900 nM (inactive).

With `N#Cc1c(C(F)(F)F)cc(-c2ccc(Cl)cc2)nc1SCC(=O)Nc1ncccn1` the IC50 was 3.74 nM.

For `O=C(CCN1CCC(c2ccccc2)C1)c1ccccc1` (configuration not stated), the IC50 was 765 nM.

Work on `CC(CN1CCCC1Cc1ccccc1)C(=O)c1ccc2c(c1)OCCO2` (configuration not stated) yielded an IC50 of 2960 nM.
